# Earlier results in patent US8524202B2, “Tooth whitening compositions and methods” (priority 2008, dated 2013).
# Settings: at six months; concentrations 16%-18% carbamide peroxide; Brunton et al., 2004
compound,measurement,value
NC(N)=O.OO [carbamide peroxide],"rebound, patients",40%
